Assay results from ChEMBL document CHEMBL1201862, “PubChem BioAssay data set” (2004).
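1) Cells in 96-well plates. 2) Compound, 48 h, 5 concentrations. 3) Linear interpolation between surrounding doses. 4) Unreached endpoint = highest concentration. GI50 = concentration required for 50% inhibition of growth.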 Activity calls are given as the source filed them. Cut-off read from the data, not from the text of the source: active = GI50 up to about 1.1 µM and inactive = higher.

Tests used:
Test in all cases: NCI tumour cell line growth inhibition, 48 h
[1] = test system: A498
[2] = test system: MDA-MB-231
[3] = test system: SW-620
[4] = test system: KM12
[5] = test system: A549
[6] = test system: T47D
[7] = test system: HT-29
[8] = test system: DU-145
[9] = test system: 786-0
[10] = test system: NCI-H226
[11] = test system: CAKI-1
[12] = test system: NCI-H23
[13] = test system: K562
[14] = test system: SK-MEL-28
[15] = test system: HOP-92
[16] = test system: NCI/ADR-RES
[17] = test system: UACC-62
[18] = test system: HCC 2998
[19] = test system: U-251
[20] = test system: TK-10
[21] = test system: SF-539
[22] = test system: NCI-H522
[23] = test system: SF-295
[24] = test system: IGROV-1
[25] = test system: SF-268
[26] = test system: OVCAR-4
[27] = test system: EKVX
[28] = test system: RPMI-8226
[29] = test system: MCF7
[30] = test system: MDA-MB-435
[31] = test system: BT-549
[32] = test system: PC-3
[33] = test system: MOLT-4
[34] = test system: M14
[35] = test system: SK-MEL-5
[36] = test system: SK-OV-3
[37] = test system: HCT-15
[38] = test system: HCT-116
[39] = test system: UACC-257
[40] = test system: OVCAR-5
[41] = test system: HL-60
[42] = test system: COLO 205
[43] = test system: SNB-19
[44] = test system: Hs-578T
[45] = test system: NCI-H460
[46] = test system: OVCAR-3
[47] = test system: SN12C
[48] = test system: SNB-75
[49] = test system: SK-MEL-2
[50] = test system: UO-31
[51] = test system: HOP-62
[52] = test system: ACHN
[53] = test system: CCRF-CEM
[54] = test system: OVCAR-8
[55] = test system: RXF 393
[56] = test system: LOX IMVI
[57] = test system: Malme-3M

CSc1nc(O)c(C#N)c(-c2ccccc2)n1
GI50 [1]: > 100 µM (inactive)
GI50 [2]: > 100 µM (inactive)
GI50 [3]: > 100 µM (inactive)
GI50 [4]: > 100 µM (inactive)
GI50 [5]: > 100 µM (inactive)
GI50 [6]: 64.9 µM (inactive)
GI50 [7]: > 100 µM (inactive)
GI50 [8]: > 100 µM (inactive)
GI50 [9]: > 100 µM (inactive)
GI50 [10]: > 100 µM (inactive)
GI50 [11]: > 100 µM (inactive)
GI50 [12]: > 100 µM (inactive)
GI50 [13]: > 100 µM (inactive)
GI50 [14]: > 100 µM (inactive)
GI50 [15]: 97.5 µM (inactive)
GI50 [16]: > 100 µM (inactive)
GI50 [17]: > 100 µM (inactive)
GI50 [18]: > 100 µM (inactive)
GI50 [19]: > 100 µM (inactive)
GI50 [20]: > 100 µM (inactive)
GI50 [21]: > 100 µM (inactive)
GI50 [22]: 53.1 µM (inactive)
GI50 [23]: > 100 µM (inactive)
GI50 [24]: > 100 µM (inactive)
GI50 [25]: > 100 µM (inactive)
GI50 [26]: > 100 µM (inactive)
GI50 [27]: > 100 µM (inactive)
GI50 [28]: > 100 µM (inactive)
GI50 [29]: > 100 µM (inactive)
GI50 [30]: > 100 µM (inactive)
GI50 [31]: > 100 µM (inactive)
GI50 [32]: > 100 µM (inactive)
GI50 [33]: > 100 µM (inactive)
GI50 [34]: > 100 µM (inactive)
GI50 [35]: > 100 µM (inactive)
GI50 [36]: > 100 µM (inactive)
GI50 [37]: > 100 µM
GI50 [38]: > 100 µM (inactive)
GI50 [39]: > 100 µM (inactive)
GI50 [40]: > 100 µM (inactive)
GI50 [41]: > 100 µM (inactive)
GI50 [42]: > 100 µM (inactive)
GI50 [43]: > 100 µM (inactive)
GI50 [44]: > 100 µM (inactive)
GI50 [45]: > 100 µM (inactive)
GI50 [46]: > 100 µM (inactive)
GI50 [47]: > 100 µM (inactive)
GI50 [48]: > 100 µM (inactive)
GI50 [49]: > 100 µM (inactive)
GI50 [50]: 78.3 µM (inactive)
GI50 [51]: > 100 µM (inactive)
GI50 [52]: > 100 µM (inactive)
GI50 [53]: > 100 µM (inactive)
GI50 [54]: > 100 µM (inactive)
GI50 [55]: > 100 µM (inactive)

CCCCCCC(C)CC(CCCCCC)NCCOC(=O)c1ccc([N+](=O)[O-])cc1 (stereo not given)
GI50 [1]: 18.4 µM (inactive)
GI50 [2]: 6.71 µM (inactive)
GI50 [56]: 4.12 µM (inactive)
GI50 [3]: 12.8 µM (inactive)
GI50 [4]: 10.1 µM (inactive)
GI50 [5]: 15.1 µM (inactive)
GI50 [6]: 10.7 µM (inactive)
GI50 [7]: 4.04 µM (inactive)
GI50 [8]: 12.2 µM (inactive)
GI50 [9]: 12.6 µM (inactive)
GI50 [10]: 13.9 µM (inactive)
GI50 [12]: 14.6 µM (inactive)
GI50 [15]: 5.82 µM (inactive)
GI50 [16]: 13.4 µM (inactive)
GI50 [17]: 13 µM (inactive)
GI50 [18]: 2.02 µM (inactive)
GI50 [19]: 11.1 µM (inactive)
GI50 [20]: 10.6 µM (inactive)
GI50 [57]: 11.1 µM (inactive)
GI50 [21]: 13 µM (inactive)
GI50 [22]: 12.1 µM (inactive)
GI50 [23]: 15.2 µM (inactive)
GI50 [24]: 12.3 µM (inactive)
GI50 [25]: 13.8 µM (inactive)
GI50 [26]: 11.5 µM (inactive)
GI50 [27]: 8.71 µM (inactive)
GI50 [29]: 7.16 µM (inactive)
GI50 [31]: 15.4 µM (inactive)
GI50 [35]: 9.68 µM (inactive)
GI50 [36]: 14.9 µM (inactive)
GI50 [37]: 10.1 µM
GI50 [38]: 8.18 µM (inactive)
GI50 [39]: 4.98 µM (inactive)
GI50 [40]: 18.5 µM (inactive)
GI50 [42]: 3.18 µM (inactive)
GI50 [43]: 15.6 µM (inactive)
GI50 [44]: 17.2 µM (inactive)
GI50 [47]: 10.7 µM (inactive)
GI50 [48]: 16 µM (inactive)
GI50 [49]: 14.1 µM (inactive)
GI50 [50]: 10.4 µM (inactive)
GI50 [51]: 14.3 µM (inactive)
GI50 [52]: 13.3 µM (inactive)
GI50 [53]: 4.52 µM (inactive)
GI50 [54]: 5.66 µM (inactive)
